Holding throughout (assay type): cell-based, human
For assay [1], the system named is U87MG cells. The experiment in a line: U87MG cell proliferation, MTS assay. To be noted: Homo sapiens, U-87 MG, 72 h, MTS assay. Here is the method:
(§1) The U87MG cell line was obtained from the National Institute for Cancer Research of Genoa (Italy) and cultured in DMEM 10% FBS and 2 mM glutamine. To isolate GSCs, approximately 2.0×10^6 cells were suspended in 1 mL of a defined serum-free Neural Stem Cell (NSC) medium (Daniele, S., et al., Modulation of A1 and A2B adenosine receptor activity: a new strategy to sensitise glioblastoma stem cells to chemotherapy. Cell death & disease, 2014. 5(11): p. e1539). After 3-4 days of culture, the neurospheres were collected, suspended in NSC medium, dissociated into single cells, and plated for the assays. For the long-term treatment of cells, NSC or complete medium containing drugs was replaced every two to three days.
(§2) The human U87MG cells or GSCs were seeded at a density of 3×10^3 cells/well. After 24 h, the cells were treated from one to seven days with fresh growth medium containing different concentrations of SA16, SA23 or IB35. Following the treatment period, cell proliferation was determined using the MTS assay according to manufacturer's instruction. The absorbance of formazan at […] was measured in a colorimetric assay with an automated plate reader (Victor Wallac 2, Perkin Elmer). The results were calculated by subtracting the mean background from the values obtained from each evaluation and were expressed as the percentage of the control (untreated cells). Sigmoid dose-response curve was generated, from which the IC50 values were derived.
As representative GBM cell line, the above U87MG cells were used; this human cell line resulted an appropriate model to study the effects of PDK1 inhibition, because it is deficient for the tumour suppressor phosphatase and tensin homologue (PTEN), a negative regulator of the PI3K/AKT pathway (Wang, S. I., et al., Somatic mutations of PTEN in glioblastoma multiforme. Cancer research, 1997. 57(19): p. 4183-4186). To examine the effects of SA16, SA23 and IB35 on GBM cell growth/survival, U87MG cells were incubated with different concentrations of the new compounds (1 nM-10 μM) for 24 and 72 h. Specifically, U87MG cells were treated in complete medium with different concentrations of SA16, SA23 or IB35 (1 nM-10 μM) for 24 h (A) or 72 h (B). At the end of treatment, cell proliferation was measured using the MTS assay. The data are expressed as a percentage with respect to that of untreated cells (control), which was set to 100%, and are the mean values±SEM of three independent experiments, each performed in duplicate. The significance of the differences reported in FIGS. 1 and 2 was determined with a one-way ANOVA with Bonferroni post-test (* p<0.05, **p<0.01, *** p<0.001 vs. control cells).

For assay [2], the system named is GSCs isolated from U87MG cells. The experiment in a line: GSC proliferation, MTS assay. To be noted: Homo sapiens, U-87 MG, 168 h; seven days of treatment, MTS assay. Here is the method:
as §1, §2
The inhibition of PDK1 has been reported as potentially effective therapeutic approach to reduce self-renewal and propagation of GSCs (Signore, M., et al., Combined PDK1 and CHK1 inhibition is required to kill glioblastoma stem-like cells in vitro and in vivo. Cell death & disease, 2014. 5(5): p. e1223). On this basis, the effects of SA16, SA23 and IB35 on GSCs, isolated from U87MG cells as previously reported, were evaluated (Daniele, S., et al., Modulation of A1 and A28 adenosine receptor activity: a new strategy to sensitise glioblastoma stem cells to chemotherapy. Cell death & disease, 2014. 5(11): p. e1539). U87MG-derived GSCs were incubated with the indicated concentrations of IB35, SA23 or SA16 for four days (FIG. 8) or seven days (FIG. 9). At the end of the treatment periods, cell proliferation was measured using the MTS assay. The data were expressed as a percentage with respect to that of untreated cells (control), which was set to 100%, and are the mean values±SEM of three independent experiments, each performed in duplicate. IC50 values after seven days of treatment were calculated from sigmoid dose-response curve (FIG. 9). The significance of the differences was determined with a one-way ANOVA with Bonferroni post-test (** p<0.01, *** p<0.001 vs. control).
(In general: Formazan colour is commonly taken as a measure of viable cells.)

Assay [3] concerns U87MG cells. As to the kind of experiment: Annexin V and 7-AAD staining in U87MG cells (apoptosis). To be noted: 10 μM, 72 h. Here is the method:
Dual staining with Annexin V coniugated to fluorescein-isothiocyanate (FITC) and 7-amino-actinomysin (7-AAD) was performed using the commercially available kit (Muse Annexin V and Dead Cell Kit; Merck KGaA, Darmstadt, Germany). U87MG cells or GSCs were treated with DMSO (control), SA16, SA23 or IB35 for 72 h or seven days, respectively. At the end of the treatment periods, the percentages of living, apoptotic and dead cells were acquired and analysed by Muse™ Cell Analyzer as previously described (Daniele, S., et al., Combined inhibition of AKT/mTOR and MDM2 enhances Glioblastoma Multiforme cell apoptosis and differentiation of cancer stem cells. Sci. Rep., 2015. 5.).
It was then investigated whether the reduction in cell proliferation elicited by the PDK1 inhibitors could be associated with apoptosis. U87MG cells were treated for 72 h with DMSO (control), or 10 μM SA16, SA23 or IB35. At the end of the treatment period, the cells were collected, and the level of phosphatidylserine externalisation was evaluated using the Annexin V-staining protocol, as described above (FIG. 3). In FIG. 4 the data are expressed as the percentage of apoptotic cells (the data for the early-stage apoptotic cells shown in white, and the data for the late-stage apoptotic/necrotic cells shown in grey) versus the total number of cells. The data shown represented the mean±SEM of three different experiments. The significance of the differences was determined with a one-way ANOVA with Bonferroni post-test (*** p<0.001 vs. control).

For assay [4], the system named is AKT phosphorylation at Thr308 in U87MG cells. The experiment in a line: PDK1 activity in U87MG cells, (T308)AKT phosphorylation ELISA. Here is the method: (§3) U87MG cells were cultured in 96-well microplates (5.000 cells/well), and treated for different times with 10 μM SA16, SA23 or IB35. At the end of the treatment period, the GSCs were centrifuged at 500×g for 3 minutes; cells were washed twice using fresh saline, and rapidly fixed with 4% (for adherent U87MG cells) or 8% (for suspension GSCs) formaldehyde to preserve activation of specific protein modification. The activity of PDK1 was assessed measuring the levels of phosphorylated AKT on Thr308, using a specific primary antibodies. The subsequent incubation with a secondary HRP-conjugated antibody and the developing solution allowed the colorimetric quantification of the levels of phosphorylated protein. The relative number of cells in each well was then determined using the Crystal-Violet assay. The results were calculated by subtracting the mean background value from the values obtained under each test condition: values were normalised to the number of cells in each well and were expressed as the percentages of the control (untreated cells) values.
280(4): p. 1107-1115). […] At the end of the treatment periods, the levels of (T308)AKT phosphorylation was evaluated using an ELISA kit, as described above. The data reported in FIG. 5 were expressed as the percentage of phosphorylated (T308)AKT relative to those of untreated cells (control), which were set at 100%, and were the mean values±SEM of three independent experiments performed in triplicate.

The test system of assay [5] is AKT phosphorylation at Thr308 in GSCs. As to the kind of experiment: PDK1 activity in GSCs, (T308)AKT phosphorylation ELISA. Here is the method: as §3
The effects of the new compounds on PDK1 activity were investigated by ELISA assays also in GSCs. U87MG-derived CSCs were treated for the indicated times (0-120 min) with NSC medium containing DMSO (control), or 10 μM IIB35, SA23 or SA16. At the end of the treatment periods, the levels of AKT phosphorylation on Thr308 were evaluated using an ELISA assay, as above described. The data were expressed as the percentage of phosphorylated AKT relative to those of untreated cells (control), which were set at 100%, and were the mean values±SEM of three independent experiments performed in triplicate. The data are represented in FIG. 12. The significance of differences was performed using one-way ANOVA with Bonferroni post-test (* p<0.05, ** p<0.01, *** p<0.001 vs. control).
On the technique in general: In an ELISA, binding on a coated surface is turned into a signal by an enzyme label.

Each structure is given as a SMILES string. Like-named read-outs stand apart in the source and are kept apart here.

For the molecule `O=C1Nc2ccc(NC(=O)[C@H](NC(=O)c3cccn(Cc4ccc(F)c(F)c4)c3=O)c3ccccc3)cc2/C1=C/c1cnc[nH]1` [SA16, (Z)—(R)—N-(2-((3-((1H-imidazol-5-yl)methylene)-2-oxoindolin-5-yl)amino)-2-oxo-1-phenylethyl)-1-(3,4-difluorobenzyl)-2-oxo-1,2-dihydropyridine-3-carboxamide], the IC50 in the assay on U87MG cells [1] (read-out: IC50 U87MG) was 2050 ± 190 nM; with U87MG cells [1] (read-out: IC50 U87MG cell proliferation), 2050 ± 190 nM; in assay [2], 5.47 ± 0.1 nM. For the same molecule, the “phosphatidylserine externalization (early and late apoptosis/death)” value in the assay with U87MG cells [3] was “significant phosphatidylserine externalization”. Besides, the inhibition at 10 µM in assay [4] (Homo sapiens, U-87 MG, U87MG cells, read-out: peak of inhibition (percentage of PDK1 inhibition)) was 33.3 ± 4.5%; in assay [5] (Homo sapiens, read-out: peak of inhibition (percentage of PDK1 inhibition)) it was 74.8 ± 3%. The “inhibition of AKT phosphorylation at Thr308” value was “biphasic kinetic” in assay [4] (U87MG, 10 μM, 0-120 min) and “biphasic kinetic” in assay [5] (10 μM, 0-120 min).

One may read the inhibition as the relative decrease from the control value, in per cent.

The record behind these values is patent US10351548B2, “2-oxo-1,2-dihydropyridine-3-carboxamide compounds and their use as inhibitors of PDK1” (INTERNATIONAL SOCIETY FOR DRUG DEVELOPMENT S.R.L., priority 2015, dated 2019).
